Test results from patent publication US4599327A, “Dibenzo[bd]pyran derivatives, process for the preparation thereof and pharmaceutical compositions containing same” (priority 1982, dated 1986).
Counter-ions that a name gives are not always drawn. Like-named read-outs stand apart in the source and are kept apart here.

What was measured:
[1] = literature, Wilson et al.; cited from earlier work
[2] = literature, cited from earlier work
[3] = p.o.; U.S. Pat. No. 3,507,885 compound; cited from earlier work
[4] = cited from earlier work
[5] = narcosis potentiating activity (35 mg/kg of phenobarbital in rats); type: in vivo; settings: i.v.; narcosis time of 35 mg/kg of phenobarbital in rats lengthened by ten times (route printed for CKN-30 complex and morphine)
Description: The narcosis time of 35 mg/kg of phenobarbital in rats is lengthened by ten times by using 0.1-0.25 mg/kg i.v. CKN-30 complex or 0.05 mg/kg of CKN-49 complex. In order to achieve similar activity more than 1 mg/kg of i.v. morphine was needed.

[6] = hot-plate test using rats (analgesic activity); type: in vivo; settings: for analgesic activity: suspended with 1% methyl cellulose
[7] = Wilson et al., J. Med. Chem. 19, 1165 (1976)

## CCCCCc1cc(O)c2c(c1)OC(C)(C)[C@@H]1CC[C@@H](O)C[C@@H]21 (relative stereo) [9-nor-9β-hydroxy-hexahydrocannabinol]
[1]
  analgesic strength: as strong as morphine
[2]; [7]
  ED50 (hot plate): 2.9 mg/kg
[2]; aqueous suspension containing Emulphor emulsifying agent and ethanol
  ED50 (hot plate): 2.9 mg/kg

## CN1CC[C@]23c4c5ccc(O)c4O[C@H]2[C@@H](O)C=C[C@H]3[C@H]1C5 [morphine. HCl]
[2]; [7]
  ED50 (hot plate): 1.2 mg/kg

## CCCCCCC(C)(C)c1cc(O)c2c(c1)OC(C)(C)[C@@H]1CC[C@@H](O)C[C@@H]21 (relative stereo) [(±)-1,9β-dihydroxy-6,6-dimethyl-3-(1,1-dimethyl-1-heptyl)-6aβ,7,8,9,10,10aα-hexahydro-6H-dibenzo(bd)-pyrane]
[3]
  ED50 (mouse writhing): 1.25 mg/kg
[4]; p.o., U.S. Pat. No. 3,507,885 compound
  ED50 (tail-flick): 0.1 to 5 mg/kg

## CN1CC[C@]23c4c5ccc(O)c4O[C@H]2[C@@H](O)C=C[C@H]3[C@H]1C5 [morphine]
[5]
  dose lengthening the narcosis time by ten times: more than 1 mg/kg
[6]; i.v.
  ED50: 3.6 mg/kg
[6]; s.c.
  ED50: 4.6 mg/kg

## CCCCCc1cc(O)c2c(c1)OC(C)(C)C1CCC(O)CC21 (stereo not shown)
[2]; [7]
  ED50 (hot plate): 1.6 mg/kg
[4]; literature, B. R. Martin et al. (1977), levorotatory form
  ED50 (tail-flick): 1.71 mg/kg

## CCOCCCC(C)c1cc(O)c2c(c1)OC(C)(C)[C@@H]1CC[C@@H](O)C[C@@H]21 (relative stereo) [CKN-49, (±)-1,9β-dihydroxy-6aβ,7,8,9,10,10aα-hexahydro-6,6-dimethyl-3-[(2RS)-5-ethoxy-2-pentyl]-6H-dibenzo[bd]pyrane]
[6]
  analgesic activity: moderate analgesic activity

## COCCCC(C)c1cc(O)c2c(c1)OC(C)(C)[C@@H]1CC[C@@H](O)C[C@@H]21 (relative stereo) [CKN-30, (±)-1,9β-dihydroxy-6aβ,7,8,9,10,10aα-hexahydro-6,6-dimethyl-3-[(2RS)-5-methoxy-2-pentyl]-6H-dibenzo[bd]pyrane]
[6]
  analgesic activity: moderate analgesic activity
